Experimental data: paper PMC3293837, “Biophysical Property and Broad Anti-HIV Activity of Albuvirtide, a 3-Maleimimidopropionic Acid-Modified Peptide Fusion Inhibitor” (PLoS ONE, 2012)

How the values were obtained:
[1] = tested on: HIV-1NL4-3 I37V/V38T infectious molecular clone; format: cell-based
Experimental: The mutant viruses were generated by transient transfection of NL4-3 plasmids into 293T cells. The virus stocks were harvested 48 hours post-transfection and quantified for TCID50. […] In brief, 100 TCID50 viruses were used to infect TZM-bl cells in the presence or absence of serially diluted peptides. Two days post-infection, the cells were harvested and lysed in reporter lysis buffer, and the luciferase activity was measured. The IC50 was calculated as described above using GraphPad Prism software (GraphPad Prism software Inc., San Diego, CA).

[2] = tested on: N36 (NHR target sequence); experiment: CD spectroscopy (C-peptide alone or with N36); format: physicochemical, HIV-1; details: PBS pH 7.2, 10 µM (methods), room temperature
Experimental: CD spectroscopy was performed as previously described, [26]. […] The isolated N- and C-peptides were also tested. […] Data were averaged over three accumulations.

[3] = tested on: HIV-1NL4-3 D36G pseudovirus; format: cell-based
Experimental: (§2) HIV-1 pseudoviruses were generated as described previously [32], [55]–[56]. Briefly, 293T cells (5×10^6 cells in 15 ml of growth medium in a T-75 culture flask) were cotransfected with 10 µg of an Env-expressing plasmid and 20 µg of a backbone plasmid pSG3deltaEnv that encodes Env-defective, luciferase-expressing HIV-1 genome using Lipofectamine 2000 reagent (Invitrogen). Pseudovirus-containing culture supernatants were harvested 48 hours after transfection and filtered by 0.45-mm pore size, and stored at −80°C in 1-ml aliquots until use. The 50% tissue culture infectious dose (TCID50) of a single thawed aliquot of each pseudovirus batch was determined in TZM-bl cells. […] Briefly, the peptides were prepared with ten series dilutions in a 3-fold stepwise manner and mixed with 100 TCID50 viruses and incubated 1 hour at room temperature. The mixture was added to TZM-bl cells (10^4/well) and incubation at 37°C for 48 hours. Luciferase activity was measured using luciferase assay regents (Promega, Medison, WI) and a Luminescence Counter (Promega) according to the manufacture's instructions.

[4] = tested on: HIV-1NL4-3 V38M pseudovirus; format: cell-based
Experimental: as §2

[5] = tested on: HIV-1NL4-3 D36S/V38M pseudovirus; format: cell-based; details: HIV-1NL4-3 D36S/V38M; TZM-bl, 48 h; mean ± SD of three independent experiments
Experimental: (§3) The mutations were created using double-stranded DNA templates and selection of mutants with DpnI. For each mutation, the two primers contained the desired mutation and occupied the same starting and ending positions on opposite strands of the plasmid DNA. DNA synthesis was carried out by PCR in a 50-µL reaction volume using 1 µL of denatured plasmid template (1 ng/µL), 50 pmol of upper and lower primers and 5 U of high-fidelity thermostable polymerase PrimeStar (Takara, Dalian, China). PCR amplification was carried out for one cycle of denaturation at 98°C for 5 min, then 18 cycles of 98°C for 15 s and 68°C for 15 min, followed a final extension at 72°C for 10 min. The amplicons were treated with the restriction enzyme DpnI for 1 h at 37°C. DpnI-resistant molecules, which were rich in the desired mutants, were recovered by transforming Escherichia coli strain-DH5α to antibiotic resistance. The successful mutations were confirmed by sequencing.
as §2

[6] = tested on: HIV-1NL4-3 N43K pseudovirus; format: cell-based; details: HIV-1NL4-3 N43K; TZM-bl, 48 h; mean ± SD of three independent experiments
Experimental: as §3, §2

[7] = tested on: N36 (NHR target sequence); details: complex with N36; CD at 222 nm, 20–90°C, 1°C per min, 1 µM in PBS buffer
Experimental: CD spectroscopy was performed as previously described, [26]. […] The final peptide concentration was 10 µM in PBS buffer (pH 7.2). The isolated N- and C-peptides were also tested. The CD spectra of these individual peptides and peptide mixtures were acquired on MOS-450 spectropolarimeter (Bio-Logic, France) using a 1 nm bandwidth with a 1 nm step resolution from 190 to 260 nm at room temperature. The spectra were corrected by subtraction of a blank corresponding to the solvent. Data were averaged over three accumulations. […] Tm value was detected at protein concentration of 1 µM in PBS buffer.

[8] = tested on: HB5-3 pseudovirus (CRF07_BC); format: cell-based, HIV-1; details: HB5-3, CRF07_BC, R5; TZM-bl, 48 h; triplicate, mean ± SD of at least three independent experiments
Source text: (§1) A panel of plasmids encoding HIV-1 Envs were obtained through the AIDS Research and Reference Reagent Program (ARRRP), Division of AIDS, NIAID, NIH, including subtype A Env clones pSVIII-92RW020.5 and 92UG037.8 from Dr. B.H. Hahn; subtype B Env clones SC422661.8, TRO.11 and AC10.0.29 from Drs. D. Montefiori, F. Gao and M. Li, pRHPA4259.7 and pREJO4541.67 from Drs. B.H. Hahn and J.F. Salazar-Gonzalez, and pCAAN5342.A2 from Drs. B.H. Hahn and D.L. Kothe; subtype C Env clones Du172.17 and Du422.1 from Drs. D. Montefiori, F. Gao, S. Abdool Karim and G. Ramjee, CAP45.2.00.G3 from Drs. L. Morris, K. Mlisana and D. Montefiori, ZM197M.PB7 from Drs. B.H. Hahn, Y. Li and J.F. Salazar-Gonzalez, ZM109F.PB4 from Drs. E. Hunter and C. Derdeyn. Six CRF07_BC Env clones (CH064.20, CH070.1, CH091.9, CH110.2, CH119.10 and CH120.6) were generous gifts by Dr. Y. Shao in the Chinese Center for Disease Control and Prevention, Beijing, China. A panel of Env clones derived from subtype B′ (B01, B02, B04, and 43-22), CRF01_AE (SHX335.24, YN192.31, AE01, AE03, GX2010.36, GX11.13, GX2010.36H, BJ5.11), and CRF07_BC (BC02, BC03, BC05, BC07, BC14, SC19-15, BJ22-5, YN148R-9, XJ50-6, HB5-3) were kindly provided by Dr. Y. Wang from the National Institute for the Control of Pharmaceutical and Biological Products, Beijing, China.

[9] = tested on: SF162.LS pseudovirus (subtype B); format: cell-based, HIV-1; details: R5, TZM-bl, 48 h, triplicate, mean ± SD of three independent experiments
Source text: as §1

[10] = tested on: ZM109F.PB4 pseudovirus (subtype C); format: cell-based, HIV-1; details: R5, TZM-bl, 48 h, triplicate, mean ± SD of three independent experiments
Source text: as §1

[11] = tested on: CH091 pseudovirus (CRF07_BC); format: cell-based, HIV-1; details: R5, TZM-bl, 48 h, triplicate, mean ± SD of at least three independent experiments
Source text: as §1

[12] = tested on: GX2010.36H pseudovirus (CRF01_AE); format: cell-based, HIV-1; details: R5, TZM-bl, 48 h, triplicate, mean ± SD of at least three independent experiments
Source text: as §1

[13] = tested on: Du172.17 pseudovirus (subtype C); format: cell-based, HIV-1; details: Du172.17, subtype C, R5; TZM-bl, 48 h; triplicate, mean ± SD of three independent experiments
Source text: as §1

[14] = tested on: BJ5.11 pseudovirus (CRF01_AE); format: cell-based, HIV-1; details: BJ5.11, CRF01_AE, R5; TZM-bl, 48 h; triplicate, mean ± SD of at least three independent experiments
Source text: as §1

[15] = tested on: B04 pseudovirus (subtype B′); format: cell-based, HIV-1; details: R5, TZM-bl, 48 h, triplicate, mean ± SD of at least three independent experiments
Source text: as §1

[16] = tested on: REJO4541 pseudovirus (subtype B); format: cell-based, HIV-1; details: R5, TZM-bl, 48 h, triplicate, mean ± SD of three independent experiments
Source text: as §1

[17] = tested on: BJ22-5 pseudovirus (CRF07_BC); format: cell-based, HIV-1; details: BJ22-5, CRF07_BC, R5; TZM-bl, 48 h; triplicate, mean ± SD of at least three independent experiments
Source text: as §1

[18] = tested on: CH120 pseudovirus (CRF07_BC); format: cell-based, HIV-1; details: R5, TZM-bl, 48 h, triplicate, mean ± SD of at least three independent experiments
Source text: as §1

[19] = tested on: CH064 pseudovirus (CRF07_BC); format: cell-based, HIV-1; details: R5, TZM-bl, 48 h, triplicate, mean ± SD of at least three independent experiments
Source text: as §1

Substance: enfuvirtide
- IC50 ([1]; I37V/V38T infectious molecular clone of HIV-1NL4-3, TZM-bl, 100 TCID50, two days, mean ± SD of three independent experiments): > 750 nM
- inhibitory activity on I37V/V38T virus (in words) ([1]; infectious molecular clone, T20 up to 750 nM): no any inhibitory activity at a concentration up to 750 nM
- CD spectrum / α-helicity with N36 ([2]; equimolar N36, 37°C 30 min, 222 nm): could not form a typical α-helical complex with N36
- CD spectrum / α-helical conformation of C-peptide alone ([2]; peptide alone, 190-260 nm): minimum α-helical conformation
- increase in sensitivity of D36G mutant ([3]; D36G relative to WT HIV-1NL4-3): 8.3 fold
- IC50 ([3]; HIV-1NL4-3 D36G, TZM-bl, 48 h, mean ± SD of three independent experiments): 7.5 ± 1.3 nM
- IC50 ([4]; HIV-1NL4-3 V38M, TZM-bl, 48 h, mean ± SD of three independent experiments): 646 ± 57.7 nM
- resistance change with V38M (in words) ([4]; V38M single mutation): high-fold resistance changes
- IC50 [5]: 322 ± 60.3 nM
- IC50 [6]: 262 ± 44.4 nM
- Tm of C-peptide/N36 complex [7]: undetectable
- IC50 [8]: 23.1 ± 2.55 nM
- IC50 [9]: 43.5 ± 9.16 nM
- IC50 [10]: 76.4 ± 2.69 nM
- IC50 [11]: 65.9 ± 14.3 nM
- IC50 [12]: 25.9 ± 0.28 nM
- IC50 [13]: 11.6 ± 5.29 nM
- IC50 [14]: 342 ± 132 nM
- IC50 [15]: 7.8 ± 0.43 nM
- IC50 [16]: 78.1 ± 11.3 nM
- IC50 [17]: 25.8 ± 4.17 nM
- IC50 [18]: 50.4 ± 4.22 nM
- IC50 [19]: 61.7 ± 12.5 nM
